In PubChem BioAssay (NCI) one finds TGI and GI50 data, which are given here for 12 molecules.

Test systems include A498 renal; HCC-2998 colon; HS 578T breast; MDA-MB-435; NCI-H522 lung; NCI/ADR-RES ovarian; SK-MEL-2 melanoma; SW-620 colon; TK-10 renal; UO-31 renal.
Assay in all cases: NCI anticancer screen, dose series, 48 h

Values joined by “and” are separate entries in the source; they are usually repeats but may differ in a detail not shown here. Equal entries are not always repeated.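 Protocol summary: plate cells (96-well), add compound at 5 concentrations, incubate 48 h, interpolate endpoints linearly. GI50 = concentration required for 50% inhibition of growth. At the TGI there is no net growth.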

For `C[C@H](CC[C@@H](O)C(C)(C)O)[C@H]1CC[C@@]2(C)[C@@H]3CC=C4[C@@H](CC[C@H](OC5OC(CO)C(O)C(O)C5O)C4(C)C)[C@]3(C)C(=O)C[C@]12C` (stereo partly specified), the TGI in the experiment on A498 renal, in the experiment on HCC-2998 colon, in the experiment on HS 578T breast, with MDA-MB-435, with NCI-H522 lung and with NCI/ADR-RES ovarian was more than 100 µM throughout. For the same molecule, the TGI in the experiment on SK-MEL-2 melanoma was 69.6 µM; with SW-620 colon, more than 100 µM; in the experiment with TK-10 renal it was more than 100 µM; in the experiment with UO-31 renal, more than 100 µM.

Regarding `O=C(c1ccc(Cl)cc1)N1N=C(c2ccc(Cl)cc2)CC1(O)c1cc(F)c(Cl)cc1Cl` (stereo unspecified), the TGI in the experiment on A498 renal was 58.6 µM; in the experiment with HCC-2998 colon, 47.1 µM; in the experiment with HS 578T breast, more than 100 µM; with MDA-MB-435, 39.5 µM; with NCI-H522 lung, more than 100 µM; in the experiment on NCI/ADR-RES ovarian it was more than 100 µM. For the same molecule, the TGI is 39 µM in the experiment with SK-MEL-2 melanoma, more than 100 µM in the experiment with SW-620 colon, more than 100 µM with TK-10 renal and 22.2 µM in the experiment on UO-31 renal.

Turning to `Cc1cc(=O)c2c(O)c3c(O)cc(O)c4c5c(O)cc(O)c6c(O)c7c(=O)cc(C)c8c1c2c(c34)c(c65)c78`, the GI50 is 64.9 µM and 28.9 µM in the experiment on A498 renal; > 100 µM and 28.3 µM in the experiment with HCC-2998 colon; > 100 µM and 19.4 µM in the experiment on NCI-H522 lung; more than 100 µM in the experiment on NCI/ADR-RES ovarian; > 100 µM and 37.3 µM with SK-MEL-2 melanoma; > 100 µM and 25.5 µM in the experiment on UO-31 renal. In addition, the TGI in the experiment on A498 renal is > 100 µM and 75.6 µM; in the experiment with HCC-2998 colon it was more than 100 µM; in the experiment on HS 578T breast, more than 100 µM; in the experiment on MDA-MB-435, more than 100 µM; in the experiment on NCI-H522 lung it was > 100 µM and 44.2 µM; in the experiment with NCI/ADR-RES ovarian it was more than 100 µM. For the same molecule, the TGI with SK-MEL-2 melanoma is > 100 µM and 94 µM; in the experiment on SW-620 colon it was more than 100 µM; with TK-10 renal it was more than 100 µM; in the experiment with UO-31 renal it was > 100 µM and 65.9 µM.

In the case of `Oc1c(I)cc(I)cc1CNCCCN(Cc1ccccn1)Cc1ccccn1`, the GI50 is 0.661 µM in the experiment on A498 renal; 0.983 µM in the experiment on HCC-2998 colon; 1.38 µM in the experiment on HS 578T breast; 0.997 µM in the experiment with MDA-MB-435; 1.34 µM with NCI-H522 lung; 1.44 µM with NCI/ADR-RES ovarian. In addition, the GI50 with SK-MEL-2 melanoma is 1.18 µM; with SW-620 colon, 1.04 µM; with TK-10 renal it was 0.922 µM; with UO-31 renal, 0.786 µM. For the same molecule, the TGI with A498 renal is 1.32 µM; with HCC-2998 colon, 1.91 µM; in the experiment with HS 578T breast, 4.53 µM; in the experiment on MDA-MB-435, 2 µM; with NCI-H522 lung it was 4.48 µM; with NCI/ADR-RES ovarian, 4.29 µM. Besides, the TGI with SK-MEL-2 melanoma came to 2.91 µM; in the experiment on SW-620 colon, 2.41 µM; in the experiment with TK-10 renal, 1.8 µM; in the experiment on UO-31 renal, 1.46 µM.

For the molecule `Cc1ccccc1NC(=S)N=Nc1c(O)[nH]c2ccccc12`, the TGI with A498 renal, with HCC-2998 colon, in the experiment on HS 578T breast, in the experiment on MDA-MB-435, in the experiment on NCI-H522 lung and in the experiment with NCI/ADR-RES ovarian was more than 100 µM in each case. Further, the TGI with SK-MEL-2 melanoma, in the experiment with SW-620 colon, in the experiment on TK-10 renal and in the experiment on UO-31 renal was more than 100 µM throughout.

Take `C=CCC1NCCC2=C1C(S(=O)(=O)c1ccc(C)cc1)c1ccccc12` (stereo unspecified): the TGI in the experiment with A498 renal stood at 33.2 µM; in the experiment with HCC-2998 colon it was 3.6 µM; in the experiment on HS 578T breast, 35.1 µM; in the experiment with MDA-MB-435 it was 17.5 µM; in the experiment on NCI-H522 lung, 26 µM; in the experiment with NCI/ADR-RES ovarian, 28.5 µM. The TGI stood at 27.1 µM in the experiment on SK-MEL-2 melanoma, 29.4 µM in the experiment on SW-620 colon, 32.7 µM with TK-10 renal and 20.5 µM in the experiment on UO-31 renal.

Turning to `c1ccc(C(CCN2CCCC2)c2ccccn2)cc1` (stereo unspecified), the TGI in the experiment with A498 renal, in the experiment on HCC-2998 colon, with HS 578T breast, in the experiment on MDA-MB-435, with NCI-H522 lung and in the experiment on NCI/ADR-RES ovarian was more than 100 µM throughout. Besides, the TGI in the experiment on SK-MEL-2 melanoma, in the experiment with SW-620 colon, in the experiment with TK-10 renal and in the experiment with UO-31 renal was more than 100 µM in each case.

In the case of `Cc1nnc(N)nc1/C=C\c1cccs1`, the TGI with A498 renal is 49.7 µM; in the experiment on HCC-2998 colon, 30.9 µM; in the experiment on HS 578T breast, more than 100 µM; in the experiment with MDA-MB-435 it was 74.9 µM; with NCI-H522 lung, 17.6 µM; with NCI/ADR-RES ovarian, 76.6 µM. For the same molecule, the TGI in the experiment on SK-MEL-2 melanoma was 30.5 µM; with SW-620 colon, more than 100 µM; in the experiment with TK-10 renal, more than 100 µM; with UO-31 renal, 40.9 µM.

For the molecule `Cc1ccccc1NC(=S)N/N=C(/c1ccccc1)c1ccccn1`, the TGI in the experiment with A498 renal amounted to 10.2 µM; in the experiment with HCC-2998 colon, 14.3 µM; in the experiment with HS 578T breast, 31.2 µM; with MDA-MB-435 it was 14.2 µM; with NCI-H522 lung, 3.4 µM; with NCI/ADR-RES ovarian it was 15.2 µM. The TGI was found to be 6.9 µM in the experiment with SK-MEL-2 melanoma, 15.4 µM in the experiment on SW-620 colon, 5.24 µM in the experiment with TK-10 renal and 4.25 µM in the experiment on UO-31 renal.

Consider `COc1ccc(N2C(=O)C3c4[nH]c5ccccc5c4C4CCC(C(C)C)CC4C3C2=O)cc1` (stereo unspecified), for which the TGI in the experiment on A498 renal, in the experiment with HCC-2998 colon, in the experiment with HS 578T breast, with MDA-MB-435, in the experiment on NCI-H522 lung and in the experiment with NCI/ADR-RES ovarian was more than 100 µM in each case. Further, the TGI in the experiment on SK-MEL-2 melanoma, in the experiment on SW-620 colon, with TK-10 renal and in the experiment with UO-31 renal was more than 100 µM each time.

As to `CN(N)C(=O)NCCCl`, the TGI in the experiment on A498 renal was more than 100 µM; with HCC-2998 colon it was more than 100 µM; in the experiment with HS 578T breast, more than 100 µM; in the experiment on MDA-MB-435, more than 100 µM; with NCI-H522 lung, more than 100 µM; with NCI/ADR-RES ovarian it was 0.31 µM. The TGI with SK-MEL-2 melanoma, in the experiment with SW-620 colon, with TK-10 renal and in the experiment with UO-31 renal was more than 100 µM in each case.

`Cc1cccc2c(N)c3cccc(C(=O)NCC[N+](C)(C)Cc4sc(N5CCOCC5)nc4[N+](=O)[O-])c3nc12`: the TGI in the experiment with A498 renal was 37.3 µM; in the experiment on HCC-2998 colon it was 3.41 µM; in the experiment with HS 578T breast, 28.5 µM; in the experiment on MDA-MB-435, 35.2 µM; with NCI-H522 lung, 4.54 µM; in the experiment with NCI/ADR-RES ovarian, 23.3 µM. Besides, the TGI in the experiment with SK-MEL-2 melanoma was 45.3 µM; with SW-620 colon, more than 100 µM; in the experiment with TK-10 renal, 37.6 µM; in the experiment on UO-31 renal, 35.7 µM.
